This data set in a line: Lipophilicity, n-octanol/PBS (pH 7.4) distribution coefficient. The class given is physicochemical. On the procedure:
Lipophilicity (depicted as octanol-phosphate-buffered saline solution (PBS, pH = 7.4) distribution coefficient, logD7.4) was determined via dissolving the ^177Lu-labelled peptide (approx. 1 MBq) in a mixture (1/1, v/v) of n-octanol and PBS. The suspension was vortexed in a reaction vial (1.5 mL) for 3 min at RT and the vial was centrifuged at 9000× […] for 5 min (Biofuge 15, Heraus Sepatech GmbH, Osterode, Germany). 200 μL aliquots of both layers were measured separately in a γ-counter (Perkin Elmer, Waltham, MA, USA). The experiment was repeated at least five times.

Setting [1] is: 177Lu-labelled peptide, n-octanol/PBS pH 7.4, read-out: logD7.4.

Molecules are shown by their SMILES. Read-outs that look alike come from different tables or passages of the source. Starred links: 1 amine or outer side, 2 acyl side, 3 side chain; linkers in the order of their positions; H or OH if unused. Non-standard residues stand in square brackets, D forms with d. Residues, ends and D or L forms follow the SMILES beside them. *: point of attachment. X1 = O=C(O)CN1CCN(CC(=O)O)CCN([C@H](CCC(=O)*)C(=O)O)CCN(CC(=O)O)CC1; Benzoyl(4-SiFtBu2) = CC(C)(C)[Si](F)(c1ccc(C(=O)*)cc1)C(C)(C)C; DOTA = O=C(O)CN1CCN(CC(=O)O)CCN(CC(=O)*)CCN(CC(=O)O)CC1; d(γGlu) = O=C(O)[C@@H](CCC(=O)[*:2])N[*:1]; Nle = CCCC[C@H](N)C(=O)O; dDap = NC[C@@H](N)C(=O)O

Take `CCCC[C@H](NC(=O)[C@H](Cc1c[nH]c2ccccc12)NC(=O)CNC(=O)[C@H](Cc1ccc(O)cc1)NC(=O)[C@H](C)NC(=O)[C@@H](CNC(=O)c1ccc([Si](F)(C(C)(C)C)C(C)(C)C)cc1)NC(=O)CC[C@@H](NC(=O)CC[C@@H](NC(=O)CC[C@@H](NC(=O)CC[C@@H](NC(=O)CC[C@@H](NC(=O)CC[C@@H](NC(=O)CC[C@H](C(=O)O)N1CCN(CC(=O)O)CCN(CC(=O)O)CCN(CC(=O)O)CC1)C(=O)O)C(=O)O)C(=O)O)C(=O)O)C(=O)O)C(=O)O)C(=O)N[C@@H](CC(=O)O)C(=O)N[C@@H](Cc1ccccc1)C(N)=O` [[nat/177Lu]Lu-(R)-DOTAGA-rhCCK-10, metal not drawn] ({X1-d(γGlu)-d(γGlu)-d(γGlu)-d(γGlu)-d(γGlu)-d(γGlu)}-[dDap](Benzoyl(4-SiFtBu2))AYGW[Nle]DF-NH2): under setting [1], the logD is -2.15 ± 0.08. As to `CCCC[C@H](NC(=O)[C@H](Cc1c[nH]c2ccccc12)NC(=O)CNC(=O)[C@H](Cc1ccc(O)cc1)NC(=O)[C@H](C)NC(=O)CC[C@@H](NC(=O)CC[C@@H](NC(=O)CC[C@@H](NC(=O)[C@@H](CNC(=O)c1ccc([Si](F)(C(C)(C)C)C(C)(C)C)cc1)NC(=O)CC[C@@H](NC(=O)CC[C@@H](NC(=O)CC[C@@H](NC(=O)CC[C@H](C(=O)O)N1CCN(CC(=O)O)CCN(CC(=O)O)CCN(CC(=O)O)CC1)C(=O)O)C(=O)O)C(=O)O)C(=O)O)C(=O)O)C(=O)O)C(=O)N[C@@H](CC(=O)O)C(=O)N[C@@H](Cc1ccccc1)C(N)=O` [[nat/177Lu]Lu-(R)-DOTAGA-rhCCK-13, metal not drawn] ({X1-d(γGlu)-d(γGlu)-d(γGlu)}-[dDap](Benzoyl(4-SiFtBu2))[d(γGlu)][d(γGlu)][d(γGlu)]AYGW[Nle]DF-NH2), the logD under setting [1] was -2.57 ± 0.06. Turning to `CCCC[C@H](NC(=O)[C@H](Cc1c[nH]c2ccccc12)NC(=O)CNC(=O)[C@H](Cc1ccc(O)cc1)NC(=O)[C@H](C)NC(=O)CC[C@@H](NC(=O)CC[C@@H](NC(=O)CC[C@@H](NC(=O)CC[C@@H](NC(=O)[C@@H](CNC(=O)c1ccc([Si](F)(C(C)(C)C)C(C)(C)C)cc1)NC(=O)CC[C@@H](NC(=O)CC[C@@H](NC(=O)CC[C@H](C(=O)O)N1CCN(CC(=O)O)CCN(CC(=O)O)CCN(CC(=O)O)CC1)C(=O)O)C(=O)O)C(=O)O)C(=O)O)C(=O)O)C(=O)O)C(=O)N[C@@H](CC(=O)O)C(=O)N[C@@H](Cc1ccccc1)C(N)=O` [[nat/177Lu]Lu-(R)-DOTAGA-rhCCK-14, metal not drawn] ({X1-d(γGlu)-d(γGlu)}-[dDap](Benzoyl(4-SiFtBu2))[d(γGlu)][d(γGlu)][d(γGlu)][d(γGlu)]AYGW[Nle]DF-NH2), the logD under setting [1] was -2.26 ± 0.05. Turning to `CSCC[C@H](NC(=O)[C@H](Cc1c[nH]c2ccccc12)NC(=O)CNC(=O)[C@H](Cc1ccc(O)cc1)NC(=O)[C@H](C)NC(=O)CC[C@@H](NC(=O)CC[C@@H](NC(=O)CC[C@@H](NC(=O)CC[C@@H](NC(=O)CC[C@@H](NC(=O)CC[C@@H](NC(=O)CN1CCN(CC(=O)O)CCN(CC(=O)O)CCN(CC(=O)O)CC1)C(=O)O)C(=O)O)C(=O)O)C(=O)O)C(=O)O)C(=O)O)C(=O)N[C@@H](CC(=O)O)C(=O)N[C@@H](Cc1ccccc1)C(N)=O` [[nat/177Lu]Lu-γ-CP04, metal not drawn], the logD (pH 7.4) is -4.3 ± 0.08.

In the case of `CCCC[C@H](NC(=O)[C@H](Cc1c[nH]c2ccccc12)NC(=O)CNC(=O)[C@H](Cc1ccc(O)cc1)NC(=O)[C@H](C)NC(=O)[C@@H](CCC(=O)O)NC(=O)[C@@H](CNC(=O)c1ccc([Si](F)(C(C)(C)C)C(C)(C)C)cc1)NC(=O)[C@@H](CCC(=O)O)NC(=O)[C@@H](CCC(=O)O)NC(=O)[C@@H](CCC(=O)O)NC(=O)[C@@H](CCC(=O)O)NC(=O)[C@@H](CCC(=O)O)NC(=O)CC[C@H](C(=O)O)N1CCN(CC(=O)O)CCN(CC(=O)O)CCN(CC(=O)O)CC1)C(=O)N[C@@H](CC(=O)O)C(=O)N[C@@H](Cc1ccccc1)C(N)=O` [[nat/177Lu]Lu-(R)-DOTAGA-rhCCK-2, metal not drawn] (X1-[dE][dE][dE][dE][dE][dDap](Benzoyl(4-SiFtBu2))[dE]AYGW[Nle]DF-NH2), under setting [1], the logD is -1.95 ± 0.09. With `CCCC[C@H](NC(=O)[C@H](Cc1c[nH]c2ccccc12)NC(=O)CNC(=O)[C@H](Cc1ccc(O)cc1)NC(=O)[C@H](C)NC(=O)CC[C@@H](NC(=O)CC[C@@H](NC(=O)CC[C@@H](NC(=O)CC[C@@H](NC(=O)CC[C@@H](NC(=O)CC[C@@H](NC(=O)CN1CCN(CC(=O)O)CCN(CC(=O)O)CCN(CC(=O)O)CC1)C(=O)O)C(=O)O)C(=O)O)C(=O)O)C(=O)O)C(=O)O)C(=O)N[C@@H](CC(=O)O)C(=O)N[C@@H](Cc1ccccc1)C(N)=O` [[nat/177Lu]Lu-DOTA-PP-γ-F11N, metal not drawn] ({DOTA-d(γGlu)-d(γGlu)-d(γGlu)-d(γGlu)-d(γGlu)-d(γGlu)}-AYGW[Nle]DF-NH2), the logD (pH 7.4) is -4.38 ± 0.05. In the case of `CCCC[C@H](NC(=O)[C@H](Cc1c[nH]c2ccccc12)NC(=O)CNC(=O)[C@H](Cc1ccc(O)cc1)NC(=O)[C@H](C)NC(=O)CC[C@@H](NC(=O)CC[C@@H](NC(=O)[C@@H](CNC(=O)c1ccc([Si](F)(C(C)(C)C)C(C)(C)C)cc1)NC(=O)CC[C@@H](NC(=O)CC[C@@H](NC(=O)CC[C@@H](NC(=O)CC[C@@H](NC(=O)CC[C@H](C(=O)O)N1CCN(CC(=O)O)CCN(CC(=O)O)CCN(CC(=O)O)CC1)C(=O)O)C(=O)O)C(=O)O)C(=O)O)C(=O)O)C(=O)O)C(=O)N[C@@H](CC(=O)O)C(=O)N[C@@H](Cc1ccccc1)C(N)=O` [[nat/177Lu]Lu-(R)-DOTAGA-rhCCK-12, metal not drawn] ({X1-d(γGlu)-d(γGlu)-d(γGlu)-d(γGlu)}-[dDap](Benzoyl(4-SiFtBu2))[d(γGlu)][d(γGlu)]AYGW[Nle]DF-NH2), the logD under setting [1] was -2.34 ± 0.05. Still for that read-out and setting: then `CCCC[C@H](NC(=O)[C@H](Cc1c[nH]c2ccccc12)NC(=O)CNC(=O)[C@H](Cc1ccc(O)cc1)NC(=O)[C@H](C)NC(=O)CC[C@@H](NC(=O)CC[C@@H](NC(=O)CC[C@@H](NC(=O)CC[C@@H](NC(=O)CC[C@@H](NC(=O)CC[C@@H](NC(=O)CC[C@@H](NC(=O)CC[C@@H](NC(=O)[C@@H](CNC(=O)c1ccc([Si](F)(C(C)(C)C)C(C)(C)C)cc1)NC(=O)CC[C@H](C(=O)O)N1CCN(CC(=O)O)CCN(CC(=O)O)CCN(CC(=O)O)CC1)C(=O)O)C(=O)O)C(=O)O)C(=O)O)C(=O)O)C(=O)O)C(=O)O)C(=O)O)C(=O)N[C@@H](CC(=O)O)C(=O)N[C@@H](Cc1ccccc1)C(N)=O` [[nat/177Lu]Lu-(R)-DOTAGA-rhCCK-18, metal not drawn], with -2.16 ± 0.09; and `CCCC[C@H](NC(=O)[C@H](Cc1c[nH]c2ccccc12)NC(=O)CNC(=O)[C@H](Cc1ccc(O)cc1)NC(=O)[C@H](C)NC(=O)[C@@H](CCC(=O)O)NC(=O)[C@@H](CCC(=O)O)NC(=O)[C@@H](CCC(=O)O)NC(=O)[C@@H](CCC(=O)O)NC(=O)[C@@H](CCC(=O)O)NC(=O)[C@@H](CCC(=O)O)NC(=O)[C@@H](CCC(=O)O)NC(=O)[C@@H](CNC(=O)c1ccc([Si](F)(C(C)(C)C)C(C)(C)C)cc1)NC(=O)CC[C@H](C(=O)O)N1CCN(CC(=O)O)CCN(CC(=O)O)CCN(CC(=O)O)CC1)C(=O)N[C@@H](CC(=O)O)C(=O)N[C@@H](Cc1ccccc1)C(N)=O` [[nat/177Lu]Lu-(R)-DOTAGA-rhCCK-8, metal not drawn] (X1-[dDap](Benzoyl(4-SiFtBu2))[dE][dE][dE][dE][dE][dE][dE]AYGW[Nle]DF-NH2), with -2.19 ± 0.08; and `CCCC[C@H](NC(=O)[C@H](Cc1c[nH]c2ccccc12)NC(=O)CNC(=O)[C@H](Cc1ccc(O)cc1)NC(=O)[C@H](C)NC(=O)CC[C@@H](NC(=O)[C@@H](CNC(=O)c1ccc([Si](F)(C(C)(C)C)C(C)(C)C)cc1)NC(=O)CC[C@@H](NC(=O)CC[C@@H](NC(=O)CC[C@@H](NC(=O)CC[C@@H](NC(=O)CC[C@@H](NC(=O)CC[C@H](C(=O)O)N1CCN(CC(=O)O)CCN(CC(=O)O)CCN(CC(=O)O)CC1)C(=O)O)C(=O)O)C(=O)O)C(=O)O)C(=O)O)C(=O)O)C(=O)N[C@@H](CC(=O)O)C(=O)N[C@@H](Cc1ccccc1)C(N)=O` [[nat/177Lu]Lu-(R)-DOTAGA-rhCCK-11, metal not drawn] ({X1-d(γGlu)-d(γGlu)-d(γGlu)-d(γGlu)-d(γGlu)}-[dDap](Benzoyl(4-SiFtBu2))[d(γGlu)]AYGW[Nle]DF-NH2), with -2.23 ± 0.07.

`CCCC[C@H](NC(=O)[C@H](Cc1c[nH]c2ccccc12)NC(=O)CNC(=O)[C@H](Cc1ccc(O)cc1)NC(=O)[C@H](C)NC(=O)[C@@H](CCC(=O)O)NC(=O)[C@@H](CCC(=O)O)NC(=O)[C@@H](CCC(=O)O)NC(=O)[C@@H](CCC(=O)O)NC(=O)[C@@H](CNC(=O)c1ccc([Si](F)(C(C)(C)C)C(C)(C)C)cc1)NC(=O)[C@@H](CCC(=O)O)NC(=O)[C@@H](CCC(=O)O)NC(=O)CC[C@H](C(=O)O)N1CCN(CC(=O)O)CCN(CC(=O)O)CCN(CC(=O)O)CC1)C(=O)N[C@@H](CC(=O)O)C(=O)N[C@@H](Cc1ccccc1)C(N)=O` [[nat/177Lu]Lu-(R)-DOTAGA-rhCCK-5, metal not drawn] (X1-[dE][dE][dDap](Benzoyl(4-SiFtBu2))[dE][dE][dE][dE]AYGW[Nle]DF-NH2): the logD under setting [1] was -2.67 ± 0.05. Still for that read-out and setting: then `CCCC[C@H](NC(=O)[C@H](Cc1c[nH]c2ccccc12)NC(=O)CNC(=O)[C@H](Cc1ccc(O)cc1)NC(=O)[C@H](C)NC(=O)[C@@H](CCC(=O)O)NC(=O)[C@@H](CCC(=O)O)NC(=O)[C@@H](CCC(=O)O)NC(=O)[C@@H](CNC(=O)c1ccc([Si](F)(C(C)(C)C)C(C)(C)C)cc1)NC(=O)[C@@H](CCC(=O)O)NC(=O)[C@@H](CCC(=O)O)NC(=O)[C@@H](CCC(=O)O)NC(=O)CC[C@H](C(=O)O)N1CCN(CC(=O)O)CCN(CC(=O)O)CCN(CC(=O)O)CC1)C(=O)N[C@@H](CC(=O)O)C(=O)N[C@@H](Cc1ccccc1)C(N)=O` [[nat/177Lu]Lu-(R)-DOTAGA-rhCCK-4, metal not drawn] (X1-[dE][dE][dE][dDap](Benzoyl(4-SiFtBu2))[dE][dE][dE]AYGW[Nle]DF-NH2), with -2.19 ± 0.08.

Source of the values: article PMC9783573, “Introduction of a SiFA Moiety into the D-Glutamate Chain of DOTA-PP-F11N Results in Radiohybrid-Based CCK-2R-Targeted Compounds with Improved Pharmacokinetics In Vivo” (Pharmaceuticals, 2022).
